Reference: EP4368729A1, “MOLECULES TARGETING RIBOSOMAL PROTEIN RPL40 FOR USE IN COSMETICS AND THE TREATMENT OF DISEASES OF THE SKIN” (Merck Patent GmbH, priority 2022, dated 2024)
Entries after “also recorded” stand apart in the source; their conditions may differ.

Target: T1, rpL40 (Saccharomyces cerevisiae, UniProt P0CH08)
T1 construct: endogenous in cells; host or cells: S. cerevisiae diploid strain (BY2n / BY4743 background) co-transformed with the TE-FF and REN reporter plasmids
Assay: Biological activity of prospective L40 binders: tropoelastin-firefly / renilla dual luciferase reporter in yeast cells
Assay type: cell-based
Conditions: treatment at 1nM, 10nM, 100nm, 1µM, 10µM and 100µM; replicates n=3; Figs. 3-5
Experimental: The present invention will now be described further in the following examples with reference to the accompanying Figures, nevertheless, without being limited thereto. […] The wildtype (abbreviated WT) is shown as a red dot. […] Replicates n=3, and treatment was made at 1nM, 10nM, 100nm, 1µM, 10µM, and 100µM concentration of compounds.
Wildtype (BY2n) and variant ribosomal protein yeast strains (Kelly DE, Lamb DC, Kelly SL. Genome-wide generation of yeast gene deletion strains. Comp Funct Genomics. 2001;2(4):236-42. doi: 10.1002/cfg.95. PMID: 18628917; PMCID: PMC2447215), that were co-transformed with the tropoelastin-firefly and the renilla protein expression reporter plasmids were used for overnight cultures using single colony inoculation. Cell density (OD600) was determined using a Hitachi U_3000 spectrophotometer. […]
Dual luciferase assay readouts were performed with the GloMax Multi Detection System using the Dual-Luciferase® Reporter Assay System (Promega). For each dual luciferase luminescence measurement, 50 µl of a cell culture (5×10^5 cells) were transferred into a 96-well plate and lysed through addition of 20 µl passive lysis buffer (Promega) for one minute, following the instruction of the supplier. FF luminescence readout was detected upon addition of 50 µl of LAR II substrate, and then REN luminescence signal was recorded after the addition of 50 µl Stop & Glo® substrate. […]

T1 sequence (P0CH08 77-128): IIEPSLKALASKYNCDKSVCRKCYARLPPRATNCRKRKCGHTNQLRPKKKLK

## CCCC(Oc1cccc(C(=N)N)c1)C(=O)Nc1ccc2c(c1)S(=O)(=O)c1ccccc1-2 (stereo not shown) [Compound 22]
  translation in yeast cells: decreasing translation; also recorded: lowered translation
